The results in this text go back to US8569295B2, “Bicyclic urea compounds” (Merck Patent GmbH, priority 2009, dated 2013).

The first experiment addresses T1, GST-Aurora A (Homo sapiens, UniProt O14965).
T1 construct: N-terminal GST fusion with full length Aurora A (1-403 amino acids); purchased Carna Biosciences 05-101
T1 sequence (O14965 1-403): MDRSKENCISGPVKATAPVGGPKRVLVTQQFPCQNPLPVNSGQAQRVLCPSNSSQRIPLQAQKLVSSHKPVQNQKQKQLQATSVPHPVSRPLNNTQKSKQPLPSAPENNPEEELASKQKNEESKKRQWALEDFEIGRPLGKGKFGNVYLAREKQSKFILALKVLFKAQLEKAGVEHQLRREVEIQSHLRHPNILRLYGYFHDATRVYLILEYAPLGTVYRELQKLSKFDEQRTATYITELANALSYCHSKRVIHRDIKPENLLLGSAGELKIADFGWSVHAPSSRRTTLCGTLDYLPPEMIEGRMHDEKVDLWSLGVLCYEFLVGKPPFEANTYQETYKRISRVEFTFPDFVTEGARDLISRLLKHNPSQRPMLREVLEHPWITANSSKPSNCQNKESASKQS
Nature of the experiment: Aurora A kinase biochemical mobility shift assay (Caliper LC3000 / Desktop Profiler). The note with it: AK A (Aurora kinase A) inhibition. On the procedure:
(§1) The Aurora assays described here are performed on two Caliper Life Sciences systems: the LC3000 and the Desktop Profiler. The RON kinase assays are performed on the Desktop Profiler only. These provide data on enzyme activity via measurement of the relative amounts of phosphorylated or unphosphorylated fluorescently labelled substrate peptide at the end of an enzymatic reaction. These different states of peptide are resolved by applying a potential difference across the sample. The presence of the charged phosphate group on the product (as opposed to the substrate) causes a different peptide mobility between the two peptides. This is visualized by excitation of the fluorescent label on the substrate and product peptides and represented as peaks within the analysis software.
In order to measure inhibitor activity of Aurora A inhibitors in the Caliper Life Sciences LC3000, a TTP Mosquito liquid handling instrument is used to place 0.25 ul of the appropriate concentration of inhibitor in 100% DMSO (for a dose response curve calculation) into each well of a 384-well plate. To this reaction components are added to a final volume of 25 ul: • 0.067 ng/ul GST-Aurora A (Carna Biosciences 05-101. N-terminal GST fusion with full length Aurora A (1-403 amino acids), accession number NP_940835.1). • 15 uM ATP (Fluka, 02055) • 1 mM DTT (Sigma, D0632) • 1 mM MgCl2 (Sigma, M1028) • 1 uM substrate peptide (sequence FITC-LRRASLG-(CONH2), synthesized by Tufts Peptide Synthesis service. • 100 mM HEPES pH 7.5 (Calbiochem, 391338) • 0.015% Brij-35 (Sigma, B4184)
The reaction is incubated for 90 min at 25 C, and then stopped by the addition of 70 ul of Stop buffer (100 mM HEPES pH 7.5, 0.015% Brij-35, 10 mM EDTA (Sigma, E7889)).
The plate is read on a Caliper LC3000 in an Off-Chip mobility shift assay format, using the following parameters for a 12-sipper chip: screening pressure −1.8 psi, upstream voltage −2700, downstream voltage −1000. These conditions cause unphosphorylated substrate and phosphorylated product peptide to resolve as separate peaks allowing direct measurement of percentage of conversion of substrate to product. The percent conversion can be plotted against concentration of inhibitor to produce a sigmoidal dose response curve, from which an IC50 can be calculated using XLFit for Microsoft Excel.
(§2) The Desktop Profiler utilizes the same priniciple as the LC3000 for calculating percentage conversion of a substrate to product. Caliper Life Sciences provides proprietary flash frozen pre-made 384 well plates containing selected kinases. Each column in the 384 well plate contains a particular selected kinase. A second plate, the ‘substrate plate’ contains a mix of fluorescently labeled peptide substrate and ATP. These are arranged in columns so that transfer for substrate plate to enzyme plate provides the correct enzyme with the correct substrate/ATP concentration. Compounds are added to a thawed enzyme plate in the desired format, in single concentrations. Reactions are initiated by transfer of the substrate/ATP mix from the substrate plate. The enzyme plate is incubated for 90 minutes at 25 C. The reaction is stopped by addition of 70 ul of Stop Buffer (100 mM HEPES pH 7.5, 0.015% Brij-35, 10 mM EDTA (Sigma, E7889)).
(§3) Reading of the plate in the Profiler is identical to the LC3000, and the ratio between substrate and product peaks provides the activity of the enzyme in that well. This is best represented by a plate heat map which colors each well by percent inhibition as compared to positive and negative controls (no inhibitors and no ATP respectively).
For orientation: IC50 means the concentration at which inhibition is half-maximal. Consider `O=C(Nc1ccc(Nc2ccnc3c2CN(CC(F)(F)F)C(=O)N3)cc1)c1ccccc1` [Example 37, N-(4-(2-oxo-3-(2,2,2-trifluoroethyl)-1,2,3,4-tetrahydropyrido[2,3-d]pyrimidin-5-ylmino)phenyl)benzamide], for which the half-inhibitory concentration (IC50) lay in the range of 10 to 100 nM.

With `O=C(Nc1ccc(Nc2ccnc3c2CN(CC(F)(F)F)C(=O)N3)cc1)c1ccc(F)cc1C(F)(F)F` [Example 38, 4-fluoro-N-(4-(2-oxo-3-(2,2,2-trifluoroethyl)-1,2,3,4-tetrahydropyrido [2,3-d]pyrimidin-5-ylamino)phenyl)-2-(trifluoromethyl) benzamide], the IC50 is 10 to 100 nM. Still for that read-out and setting: the result for `CN1Cc2c(Nc3ccc(NC(=O)c4cccc(F)c4F)c(F)c3)ccnc2NC1=O` [Example 39, 2,3-difluoro-N-(2-fluoro-4-(3-methyl-2-oxo-1,2,3,4-tetrahydropyrido [2,3-d]pyrimidin-5-ylamino)phenyl) benzamide] reads 10 to 100 nM; that for `O=C(Nc1ccc(Nc2ccnc3c2CN(CC(F)(F)F)C(=O)N3)c(F)c1)c1ccc(F)cc1C(F)(F)F` [Example 40, 4-fluoro-N-(3-fluoro-4-(2-oxo-3-(2,2,2-trifluoroethyl)-1,2,3,4-tetrahydropyrido[2,3-d]pyrimidin-5-ylamino)phenyl)-2-(trifluoromethyl) benzamide], < 10 nM. On the same count and under the same terms, the result for `CN1Cc2c(Nc3ccc(NC(=O)c4ccccc4F)cc3F)ccnc2NC1=O` [Example 41, 2-fluoro-N-(3-fluoro-4-(3-methyl-2-oxo-1,2,3,4-tetrahydropyrido [2,3-d]pyrimidin-5-ylamino)phenyl) benzamide] reads 10 to 100 nM; that for `O=C(Nc1ccc(Nc2ccnc3c2C2OCCN2C(=O)N3)cc1)c1ccc(F)cc1C(F)(F)F` (stereo not drawn) [Example 43, 4-fluoro-N-(4-(5-oxo-3,5,6,10b-tetrahydro-2H-oxazolo[3,2-c]pyrido [3,2-e]pyrimidin-10-ylamino)phenyl)-2-(trifluoromethyl) benzamide], 100 to 1000 nM; that for `COc1ccc(CN2Cc3c(Nc4ccc(NC(=O)CC(F)(F)F)cc4)ccnc3NC2=O)cc1` [Example 100, 3,3,3-trifluoro-N-(4-{[3-(4-methoxybenzyl)-2-oxo-1,2,3,4-tetrahydropyrido[2,3-d]pyrimidin-5-yl]amino}phenyl)propanamide], 100 to 1000 nM.

On to `O=C(CC(F)(F)F)Nc1ccc(Nc2ccnc3c2CNC(=O)N3)cc1` [Example 107, 3,3,3-trifluoro-N-{4-[(2-oxo-1,2,3,4-tetrahydropyrido[2,3-d]pyrimidin-5-yl)amino]phenyl}propanamide], for which the IC50 lay within 100 to 1000 nM. Turning to `O=C(CC1CC1)Nc1ccc(Nc2ccnc3c2CNC(=O)N3)cc1` [Example 108, 2-cyclopropyl-N-{4-[(2-oxo-1,2,3,4-tetrahydropyrido[2,3-d]pyrimidin-5-yl)amino]phenyl}acetamide], the IC50 was 10 to 100 nM. The same measure, in the same setting: the result for `COc1ccc(CN2Cc3c(Nc4ccc(NC(=O)c5ccc(F)cc5C(F)(F)F)cc4F)ccnc3NC2=O)cc1` [Example 112, 4-fluoro-N-(3-fluoro-4-{[3-(4-methoxybenzyl)-2-oxo-1,2,3,4-tetrahydropyrido[2,3-d]pyrimidin-5-yl]amino}phenyl)-2-(trifluoromethyl)benzamide] reads 10 to 100 nM; that for `COc1ccc(CN2Cc3c(Nc4ccc(NC(=O)c5cccc(F)c5)cc4F)ccnc3NC2=O)cc1` [Example 113, 3-fluoro-N-(3-fluoro-4-{[3-(4-methoxybenzyl)-2-oxo-1,2,3,4-tetrahydropyrido[2,3-d]pyrimidin-5-yl]amino}phenyl)benzamide], 100 to 1000 nM; that for `COc1ccc(CN2Cc3c(Nc4ccc(NC(=O)c5ccccc5F)cc4F)ccnc3NC2=O)cc1` [Example 114, 2-fluoro-N-(3-fluoro-4-{[3-(4-methoxybenzyl)-2-oxo-1,2,3,4-tetrahydropyrido[2,3-d]pyrimidin-5-yl]amino}phenyl)benzamide], 100 to 1000 nM. For the compound `O=C1NCc2c(Nc3ccc(NC(=O)c4ccc(F)cc4C(F)(F)F)cc3F)ccnc2N1` [Example 116, 4-fluoro-N-{3-fluoro-4-[(2-oxo-1,2,3,4-tetrahydropyrido[2,3-d]pyrimidin-5-yl)amino]phenyl}-2-(trifluoromethyl)benzamide], the IC50 was < 10 nM. On the same count and under the same terms, the result for `O=C1NCc2c(Nc3ccc(NC(=O)c4cccc(F)c4)cc3F)ccnc2N1` [Example 117, 3-fluoro-N-{3-fluoro-4-[(2-oxo-1,2,3,4-tetrahydropyrido[2,3-d]pyrimidin-5-yl)amino]phenyl}benzamide] reads 10 to 100 nM. On the same count and under the same terms, the result for `O=C1NCc2c(Nc3ccc(NC(=O)c4ccccc4F)cc3F)ccnc2N1` [Example 118, 2-fluoro-N-{3-fluoro-4-[(2-oxo-1,2,3,4-tetrahydropyrido[2,3-d]pyrimidin-5-yl)amino]phenyl}benzamide] reads 10 to 100 nM; that for `COc1ccc(CN2Cc3c(Nc4ccc(NC(=O)Nc5ccc(F)cc5C(F)(F)F)cc4)ccnc3NC2=O)cc1` [Example 119, N-[4-fluoro-2-(trifluoromethyl)phenyl]-N′-(4-{[3-(4-methoxybenzyl)-2-oxo-1,2,3,4-tetrahydropyrido[2,3-d]pyrimidin-5-yl]amino}phenyl)urea], 100 to 1000 nM. Same read-out and setting: the result for `COc1ccc(CN2Cc3c(Nc4ccc(NC(=O)Nc5ccc(F)c(F)c5)cc4)ccnc3NC2=O)cc1` [Example 120, N-(3,4-difluorophenyl)-N′-(4-{[3-(4-methoxybenzyl)-2-oxo-1,2,3,4-tetrahydropyrido[2,3-d]pyrimidin-5-yl]amino}phenyl)urea] reads 100 to 1000 nM; that for `O=C(Nc1ccc(Nc2ccnc3c2CNC(=O)N3)cc1)Nc1ccc(F)cc1C(F)(F)F` [Example 121, N-[4-fluoro-2-(trifluoromethyl)phenyl]-N′-{4-[(2-oxo-1,2,3,4-tetrahydropyrido[2,3-d]pyrimidin-5-yl)amino]phenyl}urea], 10 to 100 nM; that for `COc1ccc(CN2Cc3c(-c4ccc(C(=O)NCc5ccc(F)c(OC)c5)s4)ccnc3NC2=O)cc1` [Example 129, N-(4-fluoro-3-methoxybenzyl)-5-[3-(4-methoxybenzyl)-2-oxo-1,2,3,4-tetrahydropyrido[2,3-d]pyrimidin-5-yl]thiophene-2-carboxamide], 10 to 100 nM. Take `COc1cc(CNC(=O)c2ccc(-c3ccnc4c3CNC(=O)N4)s2)ccc1F` [Example 130, N-(4-fluoro-3-methoxybenzyl)-5-(2-oxo-1,2,3,4-tetrahydropyrido[2,3-d]pyrimidin-5-yl)thiophene-2-carboxamide]: the IC50 fell in the range of 10 to 100 nM.

The target in another experiment is T2, RON kinase (Homo sapiens, UniProt Q04912).
T2 construct: purchased Caliper Life Sciences
T2 sequence (Q04912 25-1400): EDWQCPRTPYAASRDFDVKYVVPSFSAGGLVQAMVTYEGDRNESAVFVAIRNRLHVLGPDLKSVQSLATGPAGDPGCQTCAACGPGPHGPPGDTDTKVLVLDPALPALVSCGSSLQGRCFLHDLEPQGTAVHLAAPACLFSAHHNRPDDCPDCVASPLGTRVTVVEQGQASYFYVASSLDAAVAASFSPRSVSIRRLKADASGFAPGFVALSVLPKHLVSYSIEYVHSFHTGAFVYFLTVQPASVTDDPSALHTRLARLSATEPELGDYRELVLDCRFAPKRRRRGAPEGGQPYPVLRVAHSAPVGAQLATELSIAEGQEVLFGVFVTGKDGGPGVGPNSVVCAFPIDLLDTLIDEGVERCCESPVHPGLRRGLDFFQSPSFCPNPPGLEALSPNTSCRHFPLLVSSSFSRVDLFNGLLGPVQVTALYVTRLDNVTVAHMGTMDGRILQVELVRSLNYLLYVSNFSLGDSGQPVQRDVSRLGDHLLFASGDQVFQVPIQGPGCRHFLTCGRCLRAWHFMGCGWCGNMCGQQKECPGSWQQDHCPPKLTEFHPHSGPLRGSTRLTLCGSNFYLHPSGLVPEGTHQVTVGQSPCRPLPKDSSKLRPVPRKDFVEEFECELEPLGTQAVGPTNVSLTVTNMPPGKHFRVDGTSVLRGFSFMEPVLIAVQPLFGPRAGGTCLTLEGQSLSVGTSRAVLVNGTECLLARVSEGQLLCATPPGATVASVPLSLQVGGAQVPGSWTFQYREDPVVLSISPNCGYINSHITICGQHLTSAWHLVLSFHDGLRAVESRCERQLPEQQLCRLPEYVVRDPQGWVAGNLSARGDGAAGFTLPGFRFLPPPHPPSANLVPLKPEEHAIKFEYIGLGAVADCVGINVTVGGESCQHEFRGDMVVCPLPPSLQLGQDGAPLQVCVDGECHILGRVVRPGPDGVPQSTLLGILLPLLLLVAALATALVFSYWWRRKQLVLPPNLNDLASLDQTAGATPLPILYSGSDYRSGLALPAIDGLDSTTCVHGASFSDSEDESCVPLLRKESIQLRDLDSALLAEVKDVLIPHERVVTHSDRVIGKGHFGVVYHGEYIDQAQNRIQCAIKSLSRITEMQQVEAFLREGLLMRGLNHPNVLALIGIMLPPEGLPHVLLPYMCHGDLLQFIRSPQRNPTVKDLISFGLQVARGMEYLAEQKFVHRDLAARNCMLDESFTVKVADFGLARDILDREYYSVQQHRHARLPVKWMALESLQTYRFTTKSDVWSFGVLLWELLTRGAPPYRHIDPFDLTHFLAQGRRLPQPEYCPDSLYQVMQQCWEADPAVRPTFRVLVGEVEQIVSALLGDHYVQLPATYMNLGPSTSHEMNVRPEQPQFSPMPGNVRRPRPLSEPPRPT
The experiment can be described thus: RON kinase biochemical mobility shift assay (Caliper Desktop Profiler). The note with it: RON kinase inhibition. How it is done: as §1, §2, §3
`O=C1NCc2c(Oc3ccc(NC(=O)c4cccn(-c5ccc(F)cc5)c4=O)cc3F)ccnc2N1` [Example 59, N-{3-fluoro-4-[(2-oxo-1,2,3,4-tetrahydropyrido[2,3-d]pyrimidin-5-yl)oxy]phenyl}-1-(4-fluorophenyl)-2-oxo-1,2-dihydropyridine-3-carboxamide]: the concentration for half-maximal inhibition (IC50) is < 10 nM.
